Assay results: PubChem BioAssay (NCI)
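Growth conditions: 96-well plates. Treatment: test compound, 48 hours, 5 concentrations. Analysis: linear interpolation between bracketing concentrations; unreached endpoints set to highest concentration. GI50 is the concentration that inhibits growth by half. At the TGI there is no net growth.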

Columns and labels:
Assay in all cases: NCI-60 cell line screen, 48 h
[1] = system: 786-0 renal
[2] = system: SNB-19 CNS
[3] = system: OVCAR-3 ovarian
[4] = system: OVCAR-8 ovarian
[5] = system: COLO 205 colon
[6] = system: HOP-62 NSCLC
[7] = system: NCI-H522 lung
[8] = system: NCI-H23 lung
[9] = system: SN12C renal
[10] = system: MCF7 breast

| Compound | GI50 [1] [µM] | TGI [1] [µM] | GI50 [2] [µM] | TGI [2] [µM] | GI50 [3] [µM] | TGI [3] [µM] | GI50 [4] [µM] | TGI [4] [µM] | GI50 [5] [µM] | TGI [5] [µM] | GI50 [6] [µM] | TGI [6] [µM] | GI50 [7] [µM] | TGI [7] [µM] | GI50 [8] [µM] | TGI [8] [µM] | GI50 [9] [µM] | TGI [9] [µM] | GI50 [10] [µM] | TGI [10] [µM] |
| --- | --- | --- | --- | --- | --- | --- | --- | --- | --- | --- | --- | --- | --- | --- | --- | --- | --- | --- | --- | --- |
| C[C@]12CC[C@@H]3c4cc(OC(F)F)c(OS(N)(=O)=O)cc4CC[C@H]3[C@@H]1CC[C@@H]2OS(N)(=O)=O | 1.8 | 16.5 | 1.48 | 21.8 | 2.17 | 28.4 | 1.74 | > 59 | 2.97 | 21.4 | 3.4 | 38.8 | 0.689 | 12.7 | 2.44 | 21.6 | 2.07 | 21.4 | 1.09 | 19.2 |
| CCC(O)C1Cc2c(C)cc3c(c2O1)C(=O)c1ccccc1C3=O (configuration not stated) |  | 62.7 |  | > 100 |  | > 100 |  | > 100 |  | 33.1 |  | > 100 |  | 51.6 |  | > 100 |  | > 100 |  |  |
| CCOC(=O)NC/C=C/COC1CCCCO1 (configuration not stated) |  | > 100 |  | > 100 |  |  |  | > 100 |  | > 100 |  | > 100 |  | > 100 |  |  |  | > 100 |  |  |
| COc1cc(O)c2c(c1)O[C@@H]1OCC[C@H]21 |  | > 100 |  | > 100 |  | > 100 |  | > 100 |  | > 100 |  | > 100 |  |  |  | > 100 |  | > 100 |  |  |
| Cc1ccc(NC(=O)c2cc3ccccc3c(N=Nc3cc(S(=O)(=O)O)ccc3O)c2O)c(C)c1 |  | > 100 |  | 71.3 |  | > 100 |  | > 100 |  | > 100 |  | > 100 |  | > 100 |  | 56.6 |  | > 100 |  |  |
| COc1ccc(NC(=O)CC/C(CC(=O)c2ccco2)=N/NC(N)=S)cc1 |  | > 100 |  | > 100 |  | > 100 |  | > 100 |  | > 100 |  | > 100 |  | > 100 |  | > 100 |  | > 100 |  |  |
| COc1cccc(/C=N/NC(=O)c2ccccc2N2CCCC2)c1O | 3.58 | > 100 | 8.93 | > 100 | 3.3 | > 100 | 5.49 | > 100 | 3.03 | > 100 | 3.58 | > 100 | 2.54 | > 100 | 7.85 | > 100 | 15.5 | > 100 |  |  |
| COc1ccc(Sc2nc3cc(N)cc(N)c3nc2-c2ccccc2)cc1 | 52.3 | > 100 | > 100 | > 100 |  |  | > 100 | > 100 | 19.3 | > 100 | > 100 | > 100 | 3.2 | > 100 | > 100 | > 100 | > 100 | > 100 | 16.5 | > 100 |
| Nc1nc(Cl)cc(NCC(O)CO)n1 (configuration not stated) |  | > 100 |  | > 100 |  | > 100 |  | > 100 |  | > 100 |  | > 100 |  |  |  | > 100 |  | > 100 |  |  |
| COc1cc2c(cc1OC)CC(=O)Nc1cc(OC)c(OC)cc1CC2 |  | > 100 |  | > 100 |  | > 100 |  | > 100 |  | > 100 |  | > 100 |  | 47.5 |  | > 100 |  | > 100 |  |  |
| N#CCCCCCOCCOCCOCCOCCOCCCCCC#N |  | > 100 |  | > 100 |  | > 100 |  | > 100 |  | > 100 |  | > 100 |  | > 100 |  | > 100 |  | > 100 |  |  |
| O=C(c1ccccc1)C(c1ccccc1)C1(O)C(=O)Nc2ccc([N+](=O)[O-])cc21 (configuration not stated) |  | > 100 |  | > 100 |  |  |  | > 100 |  | > 100 |  | > 100 |  | > 100 |  | > 100 |  | > 100 |  |  |
| COc1ccc(Cc2c(=O)[nH]nc3ccccc23)cc1 |  | > 100 |  | > 100 |  | > 100 |  | > 100 |  | > 100 |  | > 100 |  |  |  | > 100 |  | > 100 |  |  |
| Cc1nn2c(nc1=O)sc1ccc3ccccc3c12 |  | > 100 |  | > 100 |  | > 100 |  | > 100 |  | > 100 |  | > 100 |  |  |  | > 100 |  | > 100 |  |  |
| CC(=O)Nc1c(I)c(NC(C)=O)c(I)c(C(=O)O)c1I | > 100 | > 100 |  |  | > 100 | > 100 | > 100 | > 100 | > 100 | > 100 | > 100 | > 100 | > 100 | > 100 | > 100 | > 100 | > 100 | > 100 | > 100 | > 100 |
| CC1(Br)CC2OC3(Br)C=CC(C)(O)C2(CC1=O)C3(C)C (configuration not stated) |  | > 100 |  | > 100 |  | > 100 |  | > 100 |  | > 100 |  | > 100 |  | > 100 |  | > 100 |  | > 100 |  |  |
| COC(=O)C1=CO[C@@H](OC2OC(CO)C(O)C(O)C2O)[C@H]2[C@@H](C)[C@@H](O)[C@@H](O)[C@@H]12 (some centres not stated) |  | > 100 |  |  |  | > 100 |  | > 100 |  | > 100 |  | > 100 |  | > 100 |  | > 100 |  | > 100 |  | > 100 |
| CC(C)(C)[Si](C)(C)OC1[C@@H](O[Si](C)(C)C(C)(C)C)[C@@H](CNC(=O)NC(=O)CF)O[C@H]1n1cnc2c(NC(=O)Nc3ccccc3)ncnc21 (some centres not stated) | 7.46 | 15.9 |  |  | 11.1 | 23.4 | 12.8 | > 50 | 7.66 | 18.4 | 9.31 | > 50 | > 50 | > 50 | 14.3 | > 50 | 3 | 13.2 | 1.78 | 13.2 |
